pEC50, pIC50, pKi: −log10 of the molar value.
Key:
[1] = biological target: T1, Peroxisome proliferator-activated receptor gamma (Homo sapiens, UniProt P37231); assay: Agonist activity at PPARgamma (unknown origin) assessed as transcriptional activation
T1 sequence (P37231 whole entry): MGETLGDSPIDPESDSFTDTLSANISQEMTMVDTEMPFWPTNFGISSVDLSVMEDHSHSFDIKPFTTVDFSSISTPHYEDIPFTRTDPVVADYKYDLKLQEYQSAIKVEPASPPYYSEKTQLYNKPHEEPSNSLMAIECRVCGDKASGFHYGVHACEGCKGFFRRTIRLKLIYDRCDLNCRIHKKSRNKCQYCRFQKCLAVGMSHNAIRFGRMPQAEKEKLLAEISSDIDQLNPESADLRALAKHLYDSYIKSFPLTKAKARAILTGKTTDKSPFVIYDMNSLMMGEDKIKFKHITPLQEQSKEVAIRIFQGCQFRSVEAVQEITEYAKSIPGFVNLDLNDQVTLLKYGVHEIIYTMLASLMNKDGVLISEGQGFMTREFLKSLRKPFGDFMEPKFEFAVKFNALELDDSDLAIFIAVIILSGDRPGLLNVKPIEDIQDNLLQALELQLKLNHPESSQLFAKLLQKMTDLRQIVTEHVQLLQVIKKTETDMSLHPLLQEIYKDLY

[2] = biological target: T2, Peroxisome proliferator-activated receptor alpha (Homo sapiens, UniProt Q07869); assay: Agonist activity at PPARalpha (unknown origin) assessed as transcriptional activation
T2 sequence (Q07869 whole entry): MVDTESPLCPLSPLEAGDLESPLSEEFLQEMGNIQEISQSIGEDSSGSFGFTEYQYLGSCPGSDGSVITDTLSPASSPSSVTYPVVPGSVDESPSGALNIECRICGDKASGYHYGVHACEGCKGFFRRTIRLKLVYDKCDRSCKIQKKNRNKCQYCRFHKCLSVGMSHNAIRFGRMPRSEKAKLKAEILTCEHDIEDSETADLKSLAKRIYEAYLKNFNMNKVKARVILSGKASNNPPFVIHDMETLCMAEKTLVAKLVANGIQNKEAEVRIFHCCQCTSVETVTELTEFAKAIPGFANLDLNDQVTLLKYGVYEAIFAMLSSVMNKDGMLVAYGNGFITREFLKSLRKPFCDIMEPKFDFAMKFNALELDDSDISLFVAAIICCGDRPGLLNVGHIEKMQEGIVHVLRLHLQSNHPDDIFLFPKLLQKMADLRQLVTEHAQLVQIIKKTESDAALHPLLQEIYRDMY

[3] = biological target: T2, Peroxisome proliferator-activated receptor alpha; assay: Binding affinity to PPARalpha (unknown origin)
[4] = biological target: T2, Peroxisome proliferator-activated receptor alpha; assay: Agonist activity at PPARalpha in human HepG2 cells; format: cell-based
[5] = biological target: T2, Peroxisome proliferator-activated receptor alpha; assay: Agonist activity at PPARalpha (unknown origin)
[6] = biological target: T3, Peroxisome proliferator-activated receptor alpha (Mus musculus, UniProt P23204); assay: Agonist activity at mouse PPARalpha
T3 sequence (P23204 whole entry): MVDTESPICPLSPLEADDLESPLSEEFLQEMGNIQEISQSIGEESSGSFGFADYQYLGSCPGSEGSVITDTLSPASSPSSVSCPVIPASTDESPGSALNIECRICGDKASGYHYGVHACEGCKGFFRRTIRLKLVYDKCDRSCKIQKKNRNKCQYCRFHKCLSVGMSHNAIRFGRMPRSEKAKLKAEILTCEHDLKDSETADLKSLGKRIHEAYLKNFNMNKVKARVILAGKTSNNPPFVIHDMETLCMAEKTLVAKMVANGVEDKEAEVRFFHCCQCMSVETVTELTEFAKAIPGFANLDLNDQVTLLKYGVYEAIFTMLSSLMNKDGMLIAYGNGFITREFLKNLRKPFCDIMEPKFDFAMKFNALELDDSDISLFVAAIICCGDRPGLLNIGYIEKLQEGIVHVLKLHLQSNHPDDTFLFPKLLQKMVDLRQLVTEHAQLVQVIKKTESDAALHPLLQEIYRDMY

Hepatocyte = assay: Anti-fibrosis effect in CCl4 induced lipid peroxidation in rat hepatocytes by measuring MDA formation incubated for 1 hr by TBARS method; format: functional, cell-based
[7] = biological target: T4, Peroxisome proliferator-activated receptor delta (Homo sapiens, UniProt Q03181); assay: Agonist activity at PPARdelta (unknown origin)
T4 sequence (Q03181 whole entry): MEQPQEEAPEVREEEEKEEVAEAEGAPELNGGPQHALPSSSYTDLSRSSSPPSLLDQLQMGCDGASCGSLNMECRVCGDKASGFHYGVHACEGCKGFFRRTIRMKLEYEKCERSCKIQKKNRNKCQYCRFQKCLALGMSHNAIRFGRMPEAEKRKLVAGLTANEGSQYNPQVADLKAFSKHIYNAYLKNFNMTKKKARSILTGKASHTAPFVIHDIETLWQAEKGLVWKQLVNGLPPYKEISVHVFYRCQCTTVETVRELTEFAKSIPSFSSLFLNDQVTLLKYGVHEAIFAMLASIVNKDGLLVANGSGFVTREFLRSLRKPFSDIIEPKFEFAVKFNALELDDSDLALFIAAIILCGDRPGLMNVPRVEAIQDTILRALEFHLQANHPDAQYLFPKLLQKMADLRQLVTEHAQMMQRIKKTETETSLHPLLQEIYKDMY

[8] = biological target: C-C chemokine receptor type 5 (Homo sapiens, UniProt P51681); assay: Antagonist at CCR5 (unknown origin) assessed as inhibitory constant
[9] = tested on: Human immunodeficiency virus 1; assay: Antiviral activity against M tropic HIV-1 Ba-L infected in human HeLa-MAGI-CCR5 cells assessed as inhibition of viral replication; format: functional, organism-based; conditions: Human immunodeficiency virus 1, Ba-L

C-C chemokine receptor type 5, sequence (P51681 whole entry): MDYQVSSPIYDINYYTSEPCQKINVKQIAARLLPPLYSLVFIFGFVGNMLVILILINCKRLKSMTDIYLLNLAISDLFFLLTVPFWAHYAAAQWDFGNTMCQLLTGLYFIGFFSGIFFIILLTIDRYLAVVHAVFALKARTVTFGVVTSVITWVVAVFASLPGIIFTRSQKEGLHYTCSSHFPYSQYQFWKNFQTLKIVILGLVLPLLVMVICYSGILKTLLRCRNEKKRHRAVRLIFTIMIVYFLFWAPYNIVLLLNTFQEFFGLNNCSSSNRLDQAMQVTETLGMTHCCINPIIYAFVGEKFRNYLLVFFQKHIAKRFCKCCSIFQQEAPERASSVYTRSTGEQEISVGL

**Q.** With `CSc1ccc(C(=O)/C=C/c2cc(C)c(OC(C)(C)C(=O)O)c(C)c2)cc1` [ELAFIBRANOR] as the molecule, how does the pEC50 [1] read?
**A.** The pEC50 was 6.76.

**Q.** And the pEC50 [2]?
**A.** Its pEC50 is 7.35.

**Q.** `COc1ccc(Oc2cc(N(C)CCOc3ccc(CC4SC(=O)NC4=O)cc3)ncn2)cc1` (configuration not stated) [LOBEGLITAZONE] was tested. Which pEC50 [3] did it give?
**A.** Its pEC50 is 4.70.

**Q.** `CCO[C@@H](Cc1ccc(OCCn2c(C)ccc2-c2ccc(SC)cc2)cc1)C(=O)O` [SAROGLITAZAR] was tested. Which pEC50 [4] did it give?
**A.** Its pEC50 is 12.19.

**Q.** `Cc1ccc(C)c(OCCCC(C)(C)C(=O)O)c1` [GEMFIBROZIL] was tested. Which pEC50 [5] did it give?
**A.** The pEC50 was 4.82.

**Q.** `CCOC(=O)C(C)(C)Oc1ccc(Cl)cc1` [CLOFIBRATE] was tested. Which pEC50 [6] did it give?
**A.** The pEC50 was 4.26.

**Q.** How did the pIC50 (Hepatocyte) turn out when `O=C(/C=C/c1ccc(O)c2c1[C@@H](C(=O)O[C@H](Cc1ccc(O)c(O)c1)C(=O)O)[C@H](c1ccc(O)c(O)c1)O2)O[C@H](Cc1ccc(O)c(O)c1)C(=O)O` was run?
**A.** The pIC50 was 2.56.

**Q.** How did the pEC50 [7] turn out when `CCCc1c(OCCCOc2ccc(OCC(=O)O)cc2)ccc(C(C)=O)c1O` was run?
**A.** The pEC50 was 7.30.

**Q.** `Cc1ccc(-c2ccc3c(c2)C=C(C(=O)Nc2ccc(C[N+](C)(C)C4CCOCC4)cc2)CCC3)cc1` was tested. Which pKi [8] did it give?
**A.** The pKi was 8.96.

**Q.** What about the pEC50 [9] of the same molecule?
**A.** Its pEC50 is 8.92.

**Q.** What about the EC90 [9] of the same molecule?
**A.** The EC90 was 0.0057 µM.

**Q.** With `CC(C)(Oc1ccc(CCNC(=O)c2ccc(Cl)cc2)cc1)C(=O)O` [BEZAFIBRATE] as the molecule, how does the pEC50 [6] read?
**A.** The pEC50 was 4.30.
